Experimental data published in patent US20240246935A1 (Plexium, Inc., priority 2021, published 2024).

Columns and labels:
IKZF2 (Helios) = test: IKZF2 reporter degradation assay (HEK 293T IKZF2-mNeonGreen reporter cell line); format: cell-based, human; conditions: 1 μM compound, 24 hour incubation, HEK 293T IKZF2-mNeonGreen reporter
Description: Polycistronic plasmids were constructed for the mammalian expression of fluorescent reporter fusions of human transcription factors IKZF1 (Ikaros), IKZF2 (Helios), and IKZF3 (Aiolos). The respective protein sequences had their C-terminal end joined to a GGGGS linker repeated three times followed by mNeonGreen, P2A sequence, and mScarlet. The DNA sequences of the open reading frames are as follows:
IKZF1, IKZF2, and IKZF3 constructs were cloned into the UCOE Hygromycin expression vectors (Millipore Sigma). Reporter constructs were transfected using cationic lipid reagents into adherent HEK 293T cells and stable integrants were selected by treatment with 200 μg/mL hygromycin B. Clonal populations were obtained from the population of stable integrants either by limiting dilution or fluorescence activated cell sorting.
The clonal stable cell lines were maintained under constant 200 μg/mL hygromycin B selection while being passaged for use in the degradation assays. […] The fluorescence intensity of the IKZF1/2/3-mNeonGreen (FITC channel) and mScarlet (PE channel) reporters were routinely analyzed by flow cytometry to confirm consistent expression levels between experiments.
The IKZF1/IKZF2/IKZF3 degradation assays were carried out by harvesting the HEK 293T reporter cell lines and resuspending the cells in media formulated for reduced background fluorescence (FluoroBrite; Thermo Fisher). The respective cell lines were seeded at a density of 4000 cells/well into black-walled 384-well optical grade assay tissue culture plates. The cells were incubated overnight at 37° C. to allow for attachment to the assay plate. Dilutions of the compounds were prepared in DMSO from 10 mM compound stocks. The assay plates were treated with appropriate concentrations of the compounds by dispensing the DMSO dilutions in quadruplicate wells with an upper limit of 0.5% final DMSO.
After 24 hour incubation with the compounds, the assay plates were imaged on an ImageXpress Pico microscopy system (cells maintained at 37° C. during imaging) to obtain the fluorescent readouts. The assay plates were imaged in the FITC and Tetramethylrhodamine (TRITC) channels to obtain the mNeonGreen fluorescence intensity (reporter degradation data) and mScarlet fluorescence intensity (for cell segmentation). 293T-IKZF1 and 293T-IKZF3 reporter cell lines were imaged with exposures of 500 milliseconds (ms) for both FITC and TRITC channels, while the 293T-IKZF2 reporter cell line was imaged with exposures of 1000 ms for FITC and 1250 ms for TRITC. The resulting data was analyzed with Cell Reporter Xpress software using the 2-channel cell scoring analysis with a “percent positive” readout. The TRITC channel was selected for the “nuclei” segmentation with a threshold of 20 while the FITC channel was selected for the “Marker 1” segmentation and a threshold of 100 for the IKZF1 and IKZF3 reporter lines. […] The minimum segmentation width was set to 6 micrometers and the maximum segmentation width was set to 15 micrometers for all cell lines. The DCs calculations were determined by regression to best fit four-parameter logistic curves using GraphPad Prism.

[1] = target: human E3 ligase component cereblon (CRBN) (Homo sapiens (Human), UniProt Q96SW2); test: Cereblon (CRBN) target engagement, NanoBRET TE Intracellular E3 Ligase Assay in transfected HEK-293T cells; conditions: read-out: CRBN Binding EC50
Procedure: HEK293T cells were harvested ca. 75% confluent with trypsin and plated (500,000 cells/well) in a 6-well tissue culture plate in 2 mL of Dulbecco's Modified Eagle Medium (DMEM)+10% Fetal Bovine Serum (FBS) and incubated overnight at 37° C.
The NanoLuc-CRBN fusion vector (Nluc-CRBN; Promega) contains the coding region of human E3 ligase component cereblon (CRBN) fused to the C-terminus of the NanoLuc luciferase coding region. A mixture of 10 ng Nluc-CRBN and 990 ng DDB1 Expression Vector (Promega) was added to 125 μL Opti-Minimum Essential Medium (Opti-MEM™; Thermo Fisher) along with 2 μL P3000 reagent (Thermo Fisher) in a 1.5 mL epppendorf tube. This solution was added to Lipofectamine 3000 transfection reagent (5 μL; Thermo Fisher) in Opti-MEM (125 μL), mixed well, and incubated for 15 minutes at room temperature. The transfection mixture was added dropwise to cells and incubated overnight at 37° ° C., 5% CO2. Following transfection, cells were washed once with PBS, and trypsin (250 μL) was added and incubated 30-45 sec to dislodge cells. Complete media (2 mL) was added to resuspend cells to form a single cell suspension. Cells were centrifuged at 320×g for 5 min at room temperature, the supernatant was removed, and the cell pellet resuspended in Opti-MEM (3 mL; wash step repeated×2). After final resuspension in 5 mL Opti-MEM, cells were counted and resuspended at 200,000 cells/mL in Opti-MEM.
Cereblon target engagement was monitored by Bioluminescence Resonance Energy Transfer (BRET) in transfected HEK-293T cells using the NanoBRET TE Intracellular E3 Ligase Assay (Promega). Briefly, 384-well plates (white opaque plates, Corning 3574, low binding surface) were seeded with transfected HEK-293T cells (38 μL/well). 2 μL of 10 μM CRBN tracer (diluted 1:5 in Tracer Dilution Buffer) was added to each well. Plates were centrifuged at 320×g for 1 min at room temperature. Test compounds were added in a 11-point dilution series (typically 10 μM to […]) using a TECAN D300e Digital Dispenser. Plates were shaken for 2 minutes on a microplate shaker to mix compounds. Plates were centrifuged at 320×g for 1 min at room temperature, and subsequently incubated for 2 hours at 37° C.
After incubation, plates were allowed to cool to room temperature for 15 minutes. 20 μL of 3× Complete NanoBRET™ Nano-Glo® Substrate plus Inhibitor Solution (Promega, 1:166 Substrate and 1:500 dilution of Extracellular NanoLuc® Inhibitor diluted in Opti-MEM) were added to each well. Plates were incubated with shaking at room temperature for 3 minutes covered with foil. Plates were read on a CLARIOstar microplate reader (BMG LabTech), measuring at 450 nm (donor emission) and 610 nm (acceptor emission). The IC50 values were determined by regression to best fit four-parameter logistic curves using GraphPad Prism.

Chain of human E3 ligase component cereblon (CRBN) (Q96SW2 whole entry): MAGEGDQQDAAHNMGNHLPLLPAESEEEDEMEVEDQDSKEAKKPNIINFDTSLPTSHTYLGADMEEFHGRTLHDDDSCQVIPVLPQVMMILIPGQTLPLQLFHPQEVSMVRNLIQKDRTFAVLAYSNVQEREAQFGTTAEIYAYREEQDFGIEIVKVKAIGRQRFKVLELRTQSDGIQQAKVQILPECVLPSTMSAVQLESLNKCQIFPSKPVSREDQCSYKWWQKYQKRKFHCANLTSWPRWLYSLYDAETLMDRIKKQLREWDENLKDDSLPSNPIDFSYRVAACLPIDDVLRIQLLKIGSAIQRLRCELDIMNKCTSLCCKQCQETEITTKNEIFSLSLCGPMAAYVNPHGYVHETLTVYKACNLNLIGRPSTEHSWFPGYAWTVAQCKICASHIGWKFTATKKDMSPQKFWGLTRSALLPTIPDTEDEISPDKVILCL
Chain of human E3 ligase component cereblon (CRBN) (Q16531 whole entry partner): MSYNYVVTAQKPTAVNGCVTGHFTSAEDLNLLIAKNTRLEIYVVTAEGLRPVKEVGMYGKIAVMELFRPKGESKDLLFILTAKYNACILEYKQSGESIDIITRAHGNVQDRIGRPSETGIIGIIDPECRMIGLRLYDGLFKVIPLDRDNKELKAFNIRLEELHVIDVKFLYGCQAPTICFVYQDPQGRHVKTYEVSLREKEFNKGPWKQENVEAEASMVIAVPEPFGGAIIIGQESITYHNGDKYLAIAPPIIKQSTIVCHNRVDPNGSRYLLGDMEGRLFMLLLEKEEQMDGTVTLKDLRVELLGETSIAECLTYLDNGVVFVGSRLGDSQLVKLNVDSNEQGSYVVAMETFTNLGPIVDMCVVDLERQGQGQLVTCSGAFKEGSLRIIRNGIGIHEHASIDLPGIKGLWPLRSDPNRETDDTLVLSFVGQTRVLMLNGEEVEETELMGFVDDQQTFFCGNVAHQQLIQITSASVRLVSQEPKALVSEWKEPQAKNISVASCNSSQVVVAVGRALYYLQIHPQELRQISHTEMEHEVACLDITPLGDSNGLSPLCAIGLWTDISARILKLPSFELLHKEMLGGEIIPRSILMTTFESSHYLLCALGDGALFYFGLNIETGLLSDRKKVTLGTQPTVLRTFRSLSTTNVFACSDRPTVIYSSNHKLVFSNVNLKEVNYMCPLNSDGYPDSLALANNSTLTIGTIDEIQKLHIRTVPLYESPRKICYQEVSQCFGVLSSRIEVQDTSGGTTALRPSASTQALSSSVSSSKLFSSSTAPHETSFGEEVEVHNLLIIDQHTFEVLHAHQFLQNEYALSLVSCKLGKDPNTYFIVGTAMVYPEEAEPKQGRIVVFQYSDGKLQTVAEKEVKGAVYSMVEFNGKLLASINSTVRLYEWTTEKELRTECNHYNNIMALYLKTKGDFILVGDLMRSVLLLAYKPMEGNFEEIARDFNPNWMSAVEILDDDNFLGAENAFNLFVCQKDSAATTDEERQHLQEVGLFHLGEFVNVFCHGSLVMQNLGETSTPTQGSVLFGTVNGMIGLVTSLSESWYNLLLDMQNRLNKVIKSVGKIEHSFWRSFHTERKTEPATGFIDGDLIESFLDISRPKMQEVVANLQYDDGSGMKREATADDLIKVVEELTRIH

SMILES | EC50 [1] [nM] | IKZF2 % Degradation @ 1 μM (IKZF2 (Helios)) [%]
O=C1CCC(N2Cc3cc(O[C@@H]4CCCC[C@@H]4N4CC(O)(c5ccccc5)C4)ccc3C2=O)C(=O)N1 (mixture of isomers) [Compound 97, Rac-3-(5-(((cis)-2-(3-hydroxy-3-phenylazetidin-1-yl)cyclohexyl)oxy)-1-oxoisoindolin-2-yl)piperidine-2,6-dione] | 31 | <15
O=C1CCC(N2Cc3cc(O[C@H]4CCCC[C@@H]4N4CC(c5cccc(C(F)(F)F)c5)C4)ccc3C2=O)C(=O)N1 (mixture of isomers) [Compound 62, Rac-3-(1-oxo-5-(((trans)-2-(3-(3-(trifluoromethyl)phenyl)azetidin-1-yl)cyclohexyl)oxy)isoindolin-2-yl)piperidine-2,6-dione] | 46 | 87.5
O=C1CCC(N2Cc3cc(O[C@H]4CCCC[C@H]4N4CC(c5cccc(C(F)(F)F)c5)C4)ccc3C2=O)C(=O)N1 (mixture of isomers) [Compound 63, Rac-3-(1-oxo-5-(((cis)-2-(3-(3-(trifluoromethyl)phenyl)azetidin-1-yl)cyclohexyl)oxy)isoindolin-2-yl)piperidine-2,6-dione] | 15 | 44.9
O=C1CCC(N2Cc3c(ccc(O[C@H]4CCCC[C@@H]4N4CC(c5ccccc5)C4)c3Cl)C2=O)C(=O)N1 (single isomer, unassigned) [Compound 41] | 61 | <15
O=C1CCC(N2Cc3cc(O[C@@H]4CCCC[C@H]4N4CCC4c4ccccc4)ccc3C2=O)C(=O)N1 (stereo partly drawn) [Compound 54, 3-(1-oxo-5-(((1R,2R)-2-(2-phenylazetidin-1-yl)cyclohexyl)oxy)isoindolin-2-yl)piperidine-2,6-dione] | 89 | <15
O=C1CCC(N2Cc3cc(OC4CCCCC4N4CC(c5ccccc5C(F)(F)F)C4)ccc3C2=O)C(=O)N1 (stereo not drawn) [Compound 69, 3-(1-oxo-5-((2-(3-(2-(trifluoromethyl)phenyl)azetidin-1-yl)cyclohexyl)oxy)isoindolin-2-yl)piperidine-2,6-dione] | 25 | <15
O=C1CCC(N2Cc3cc(OC4CCCCC4N4CC(c5cccc(OC(F)(F)F)c5)C4)ccc3C2=O)C(=O)N1 (stereo not drawn) [Compound 67, 3-(1-oxo-5-((2-(3-(3-(trifluoromethoxy)phenyl)azetidin-1-yl)cyclohexyl)oxy)isoindolin-2-yl)piperidine-2,6-dione] | 17 | 37.8
O=C1CCC(N2Cc3cc(O[C@@H]4CCCC[C@@H]4N4CC(c5ccc(C(F)(F)F)cc5)C4)ccc3C2=O)C(=O)N1 (stereo partly drawn) [Compound 59, 3-(1-oxo-5-(((1R,2S)-2-(3-(4-(trifluoromethyl)phenyl)azetidin-1-yl)cyclohexyl)oxy)isoindolin-2-yl)piperidine-2,6-dione] | 11 | 32.7

Further lines, with some results ahead:

EC50 [1] [nM] | SMILES | IKZF2 % Degradation @ 1 μM (IKZF2 (Helios)) [%]
5 | N#Cc1ccc(C2CN([C@H]3CCCC[C@@H]3Oc3ccc4c(c3)CN(C3CCC(=O)NC3=O)C4=O)C2)c(Cl)c1 (single isomer, unassigned) [Compound 47] | 86.7
8 | N#Cc1cc(Cl)ccc1C1CN([C@H]2CCCC[C@@H]2Oc2ccc3c(c2)CN(C2CCC(=O)NC2=O)C3=O)C1 (single isomer, unassigned) [Compound 39] | 84.6
52 | N#Cc1cc(Cl)ccc1C1CN([C@H]2CCCC[C@@H]2Oc2ccc3c(c2)CN(C2CCC(=O)NC2=O)C3=O)C1 (single isomer, unassigned) [Compound 38] | 84.9
11 | N#Cc1cc(Cl)ccc1C1CN([C@H]2CCCC[C@H]2Oc2ccc3c(c2)CN(C2CCC(=O)NC2=O)C3=O)C1 (stereo partly drawn) [Compound 40, 5-chloro-2-(1-((1S,2R)-2-((2-(2,6-dioxopiperidin-3-yl)-1-oxoisoindolin-5-yl)oxy)cyclohexyl)azetidin-3-yl)benzonitrile] | <15
58 | N#Cc1ccccc1C1CN([C@H]2CCCC[C@@H]2Oc2ccc3c(c2)CN(C2CCC(=O)NC2=O)C3=O)C1 (mixture of isomers) [Compound 108, Rac-2-(1-((trans)-2-((2-(2,6-dioxopiperidin-3-yl)-1-oxoisoindolin-5-yl)oxy)cyclohexyl)azetidin-3-yl)benzonitrile] | 71.3
18 | O=C1CCC(N2Cc3cc(O[C@H]4CCCC[C@H]4N4CC(c5ccccc5)C4)ccc3C2=O)C(=O)N1 (stereo partly drawn) [Compound 128, 3-(1-oxo-5-(((1S,2R)-2-(3-phenylazetidin-1-yl)cyclohexyl)oxy)isoindolin-2-yl)piperidine-2,6-dione] | <15
22 | N#Cc1cccc(C2CN([C@H]3CCCC[C@H]3Oc3ccc4c(c3)CN(C3CCC(=O)NC3=O)C4=O)C2)c1 (mixture of isomers) [Compound 76, Rac-3-(1-((cis)-2-((2-(2,6-dioxopiperidin-3-yl)-1-oxoisoindolin-5-yl)oxy)cyclohexyl)azetidin-3-yl)benzonitrile] | 73.7
25 | N#Cc1cc(Cl)ccc1C1CN([C@@H]2CCCC[C@@H]2Oc2ccc3c(c2)CN(C2CCC(=O)NC2=O)C3=O)C1 (single isomer, unassigned) [Compound 37] | <15
11 | O=C1CCC(N2Cc3cc(O[C@H]4CCCC[C@@H]4N4CC(c5ccc(F)cc5)C4)ccc3C2=O)C(=O)N1 (stereo partly drawn) [Compound 123, 3-(5-(((1S,2S)-2-(3-(4-fluorophenyl)azetidin-1-yl)cyclohexyl)oxy)-1-oxoisoindolin-2-yl)piperidine-2,6-dione] | 74.4
36 | N#Cc1cc(Cl)ccc1C1CN([C@H]2CCC[C@@H]2Oc2ccc3c(c2)CN(C2CCC(=O)NC2=O)C3=O)C1 (mixture of isomers) [Compound 83, Rac-5-chloro-2-(1-((trans)-2-((2-(2,6-dioxopiperidin-3-yl)-1-oxoisoindolin-5-yl)oxy)cyclopentyl)azetidin-3-yl)benzonitrile] | 48.8
